Reference: US20150283110A1, “COMPOSITION FOR PREVENTING OR TREATING HEART DISEASE” (AMOREPACIFIC CORPORATION, priority 2012, published 2015)

Legend:
[1] = tested on: cardiomyocytes; assay: Cardiomyocyte protection from cell death induced by reactive oxygen species (H2O2, MTT); assay type: cell-based, rat; conditions: 250 mM H2O2 2 hours, then 5, 20 or 50 mM for 24 hours; MTT OD 540 nm; FIGS. 2 and 3
Method: Cardiomyocytes isolated and cultured according to the substantially same method as described in Test Example 1 were treated with 250 mM hydrogen peroxide (H2O2) for 2 hours in a serum-free medium to induce cell death by reactive oxygen species. 2 hours later, after removing the medium and washing with PBS, the cells were treated with 5, 20 or 50 mM (+)-syringaresinol and (−)-syringaresinol for 24 hours. After adding a 3-[4,5-dimethylthiazolyl]-2,5-diphenyltetrazolium bromide (MTT, Sigma) solution to the cells and incubating at 37° C. for 4 hours, dimethyl sulfoxide was added and the optical density (OD) of the formed formazan dye was measured at a wavelength of 540 nm using an ELISA reader (Thermo Max, Molecular Devices Co.).

[2] = tested on: SIRT1 gene; assay: SIRT1 expression in vascular endothelial cells during induced aging (RT-PCR); assay type: cell-based; conditions: human vascular endothelial cells, 50 mM every other day, FIG. 8
Method: Human vascular endothelial cells purchased from Lonza (Walkersville, Md., USA) were cultured using the endothelial cell growth medium EGM-2 SingleQuots (Lonza) in a 5% CO2 incubator until 70% confluence. […] The population doubling level (PDL) was calculated according to the following equation for each generation until the cell growth was stopped. The PDL value is higher in aged cells.
14 PDL cells were treated with syringaresinol obtained from ginseng berry [syn(GB)], synthesized (+)-syringaresinol [syn(+)], 1:1 [syn(+/−1:1)], 2:1 [syn(+/−2:1)], 5:1 [syn(syn(+/−5:1))] or 10:1 [syn(syn(+/−10:1))] mixture of synthesized (+)-syringaresinol and synthesized (−)-syringaresinol or syringaresinol obtained from eleuthero [syn(eleuthero)] at a concentration of 50 mM every other day while inducing aging to 40 PDL cells. The cells of a negative control group were treated with DMSO of 1/1000 of the volume of the medium. The cells treated with each sample were washed 2 times with cold PBS and RNA was extracted using the TRIzol reagent (Invitrogen). cDNA was synthesized from the extracted RNA (1 μg/μL) using a reverse transcription system (Promega). Subsequently, the expression profile of the SIRT1 and GAPDH genes was measured using the synthesized cDNA and primers and probes predesigned for the genes (Applied Biosystems; SIRT1, Hs01009006_m1; GAPDH, Hs99999905_m1). […]

[3] = tested on: SIRT1 gene; assay: SIRT1 gene expression promoting effect in cardiomyocytes (RT-PCR); assay type: cell-based; set-up: change of the expression of the SIRT1 gene: dose or concentration left out as unconfirmed; conditions: rat cardiomyocytes, FIG. 1; for change of the expression of the SIRT1 gene: serum-free, 24 hours, DMSO control
Method: The SIRT1 gene expression promoting effect of the two optical isomers of syringaresinol in rat cardiomyocytes was evaluated as follows.
The heart of a 1-2 day old Sprague-Dawley rat was excised, immersed in an HBSS solution, cut into pieces with scissors and kept overnight in a trypsin/EDTA solution inside a shaker at 4° C. The next day, the trypsin solution was discarded and a 10% FCS/DMEM solution was added to inhibit trypsin activity. After discarding the FCS/DMEM, adding a collagenase solution and keeping in a shaking bath at 37° C. for about 3 minutes, only the supernatant was collected in a conical tube. This procedure was repeated three times. After centrifuging the collected solution at 750 rpm for 5 minutes, the resulting pellets were resuspended in a 10% FCS/DMEM solution, transferred to a culture flask and then incubated at 37° C. for 75 minutes. The suspension was transferred to a fresh culture flask, incubated again for 75 minutes, transferred to a conical tube and then plated after cell counting. The plated cells were cultured in a 10% FCS/DMEM medium for 3-4 days until confluence and the medium was treated respectively with the (+)-syringaresinol (50 mM) obtained in Example and with the (−)-syringaresinol (50 mM) obtained in Comparative Example for 24 hours after removing the serum. The control group was treated with DMSO. The treated cells were washed 2 times with cold PBS and RNA was extracted therefrom using the TRIzol reagent (Invitrogen). cDNA was synthesized from the extracted and quantitated 1 μg/μL RNA using a reverse transcription system (Promega). The expression profile of the SIRT1 and GAPDH genes was measured using the synthesized cDNA and primers and probes predesigned for the genes (Applied Biosystems; SIRT1, Hs01009006_m1; GAPDH, Hs99999905_m1). PCR reaction and analysis were conducted using the Rotor-Gene 3000 system (Corbett Research, Sydney, Australia).

Structure (SMILES) | death of cardiomyocytes induced by reactive oxygen species [1] | SIRT1 expression compared with cells treated with syringaresinol obtained from ginseng berry [2] | SIRT1 expression as compared to the cells treated only with DMSO ([2]; 14 PDL to 40 PDL) | effect of increasing the SIRT1 expression compared with syringaresinol obtained from ginseng berry [3] | change of the expression of the SIRT1 gene [3]
COc1cc([C@H]2OC[C@H]3[C@@H]2CO[C@@H]3c2cc(OC)c(O)c(OC)c2)cc(OC)c1O [(+)-syringaresinol, (8R,8′R)-(+)-syringaresinol] | suppressed the death of the cardiomyocytes induced by the reactive oxygen species in a concentration-dependent manner | higher SIRT1 expression than the cells treated with the syringaresinol obtained from ginseng berry | ≥ 4 times | better effect of increasing the SIRT1 expression than the syringaresinol obtained from ginseng berry | increase the SIRT1 expression in cardiomyocyte in concentration-dependent manners
COc1cc(C2OCC3C(c4cc(OC)c(O)c(OC)c4)OCC23)cc(OC)c1O (single isomer, unassigned; (-)) [(−)-syringaresinol, reference compound] | promoted cell death | – | – | – | cannot increase the expression of the SIRT1 gene
COc1cc(C2OCC3C(c4cc(OC)c(O)c(OC)c4)OCC23)cc(OC)c1O (centres unmarked) [syringaresinol obtained from ginseng berry] | – | – | – | – | increase the SIRT1 expression in cardiomyocyte in concentration-dependent manners
